Data taken from ChEMBL document CHEMBL1139292, “Tetrahydroisoquinoline amide substituted phenyl pyrazoles as selective Bcl-2 inhibitors” (Bioorg Med Chem Lett, 2009).
Activity calls are given as the source filed them. The calls are words filed in the database; no cut-off is given here.

How the values were obtained:
[1] = target: T1, Apoptosis regulator Bcl-2 (Homo sapiens, UniProt P10415); assay: Inhibition of GST fused Bcl-2 binding to biotinylated 16 mer Bak-BH3 peptide by HTRF-LANCE assay
[2] = target: T1, Apoptosis regulator Bcl-2; assay: Inhibition of GST fused Bcl-2 binding to biotinylated 26 mer Bak-BH3 peptide by HTRF-LANCE assay
[3] = target: Bcl-2-like protein 1 (Bcl-xL) (Homo sapiens) (UniProt Q07817); assay: Inhibition of GST fused Bcl-xL binding to biotinylated 26 mer Bak-BH3 peptide at 10 uM by HTRF-LANCE assay
Chain of Bcl-2-like protein 1 (Bcl-xL) (Homo sapiens) (Q07817 whole entry, looked up, the tested form may be a part): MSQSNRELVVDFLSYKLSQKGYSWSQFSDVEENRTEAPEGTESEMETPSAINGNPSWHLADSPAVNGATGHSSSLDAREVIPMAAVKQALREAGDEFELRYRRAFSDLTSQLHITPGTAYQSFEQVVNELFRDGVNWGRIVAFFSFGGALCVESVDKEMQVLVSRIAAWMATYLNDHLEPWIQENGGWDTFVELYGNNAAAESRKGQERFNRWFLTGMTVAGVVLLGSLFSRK

[4] = target: Bcl-2-like protein 1 (Bcl-xL) (Homo sapiens) (UniProt Q07817); assay: Inhibition of GST fused Bcl-xL binding to biotinylated 26 mer Bak-BH3 peptide at 30 uM by HTRF-LANCE assay
[5] = target: T1, Apoptosis regulator Bcl-2; conditions: 30 uM
Description: Inhibition of GST fused Bcl-2 binding to biotinylated 16 mer Bak-BH3 peptide at 30 uM by HTRF-LANCE assay

[6] = target: Bcl-2-like protein 1 (Bcl-xL) (Homo sapiens) (UniProt Q07817); assay: Inhibition of GST fused Bcl-xL binding to biotinylated 16 mer Bak-BH3 peptide at 30 uM by HTRF-LANCE assay
[7] = target: Bcl-2-like protein 1 (Bcl-xL) (Homo sapiens) (UniProt Q07817); assay: Inhibition of GST fused Bcl-xL binding to biotinylated 16 mer Bak-BH3 peptide at 33 uM by HTRF-LANCE assay
[8] = target: T1, Apoptosis regulator Bcl-2; assay: Inhibition of GST fused Bcl-2 binding to biotinylated 26 mer Bak-BH3 peptide at 10 uM by HTRF-LANCE assay

T1 sequence (P10415 whole entry, the tested form may be a part): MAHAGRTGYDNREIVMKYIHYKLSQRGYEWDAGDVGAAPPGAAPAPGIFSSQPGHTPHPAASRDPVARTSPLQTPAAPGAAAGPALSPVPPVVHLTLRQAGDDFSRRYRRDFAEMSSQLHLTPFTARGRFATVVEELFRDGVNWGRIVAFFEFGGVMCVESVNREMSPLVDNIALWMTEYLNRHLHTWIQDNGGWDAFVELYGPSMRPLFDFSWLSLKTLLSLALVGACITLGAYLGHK

| IC50 [1] [nM] | IC50 [2] [nM] | Structure (SMILES) | further results |
| --- | --- | --- | --- |
| 730 | – | CC(=O)NC[C@@H]1Cc2ccccc2CN1C(=O)c1ccccc1-n1nc(C(=O)N(c2ccccc2)c2ccccc2)cc1C | – |
| 1400 | – | Cc1cc(C(=O)N(c2ccccc2)C2CCCCC2)nn1-c1ccccc1C(=O)N1CCc2ccccc2C1 | – |
| – | 380 | CCCCN(CCCC)C(=O)c1nn(-c2ccc(N)cc2C(=O)N2Cc3ccccc3C[C@H]2CN)c(C)c1Cl | – |
| 5610 | – | CCOC(=O)[C@@H]1Cc2ccccc2CN1C(=O)c1ccccc1-n1nc(C(=O)N(c2ccccc2)c2ccccc2)cc1C | – |
| 50 | 480 | Cc1c(Cl)c(C(=O)N(c2ccccc2)c2ccccc2)nn1-c1ccccc1C(=O)N1Cc2ccccc2C[C@H]1CO | inhibition [4]: 29% |
| 30 | 100 | Cc1c(Cl)c(C(=O)N(c2ccccc2)c2ccccc2)nn1-c1ccccc1C(=O)N1Cc2ccccc2C[C@H]1CN | inhibition [4]: 28% |
| 110 | – | Cc1cc(C(=O)N(c2ccccc2)c2ccccc2)nn1-c1ccccc1C(=O)N1Cc2ccccc2C[C@H]1C | – |
| 110 | – | Cc1cc(C(=O)N(c2ccccc2)c2ccccc2)nn1-c1ccccc1C(=O)N1Cc2ccccc2C[C@H]1CN | – |
| 190 | – | Cc1cc(C(=O)N(c2ccccc2)c2ccccc2)nn1-c1ccccc1C(=O)N1Cc2ccccc2C[C@H]1CO | – |
| – | 510 | CCCCN(CCCC)C(=O)c1cc(C)n(-c2ccc(NC(=O)COc3ccccc3)cc2C(=O)N2CCc3ccccc3C2)n1 | – |
| – | 600 | CCCCN(CCCC)C(=O)c1cc(C)n(-c2ccc(NC(=O)CSc3ccccc3)cc2C(=O)N2CCc3ccccc3C2)n1 | – |
| 20 | 330 | CCCCN(CCCC)C(=O)c1cc(C)n(-c2ccc(OCC(=O)c3ccccc3)cc2C(=O)N2CCc3ccccc3C2)n1 | – |
| 40 | 130 | CCCCN(CCCC)C(=O)c1nn(-c2ccc(NC(=O)COc3ccccc3)cc2C(=O)N2CCc3ccccc3C2)c(C)c1Cl | – |

Second part, the compound before the results:

| Structure (SMILES) | IC50 [1] [nM] | IC50 [2] [nM] | further results |
| --- | --- | --- | --- |
| Cc1cc(C(=O)N2CCc3ccccc3C2)nn1-c1ccccc1C(=O)N1CCc2ccccc2C1 | 1500 | – | – |
| CCCCN(CCCC)C(=O)c1nn(-c2ccccc2C(=O)N2Cc3ccccc3C[C@H]2CN)c(C)c1Cl | 20 | 160 | – |
| Cc1cc(C(=O)N(C)Cc2ccccc2)nn1-c1ccccc1C(=O)N1CCc2ccccc2C1 | – | – | Activity [1]: inactive |
| CCCCN(CCCC)C(=O)c1nn(-c2ccc(NS(=O)(=O)Cc3ccccc3)cc2C(=O)N2CCc3ccccc3C2)c(C)c1Cl | – | – | inhibition [3]: 19% |
| CCCCN(CCCC)C(=O)c1cc(C)n(-c2ccc(OCC(=O)O)cc2C(=O)N2CCc3ccccc3C2)n1 | 10 | 130 | – |
| COC[C@@H]1Cc2ccccc2CN1C(=O)c1ccccc1-n1nc(C(=O)N(c2ccccc2)c2ccccc2)cc1C | 160 | – | – |
| CCCCN(CCCC)C(=O)c1nn(-c2ccc(NC(=O)Cc3ccccc3)cc2C(=O)N2CCc3ccccc3C2)c(C)c1Cl | 40 | 270 | – |
| Cc1cc(C(=O)N(c2ccccc2)c2ccccc2)nn1-c1ccccc1C(=O)N1Cc2ccccc2C[C@@H]1C | – | – | inhibition [5]: 27%; inhibition [6]: 4% |
| Cc1c(Br)c(C(=O)N(c2ccccc2)c2ccccc2)nn1-c1ccccc1C(=O)N1Cc2ccccc2C[C@H]1CO | 40 | 210 | inhibition [4]: 9% |
| CCCCN(CCCC)C(=O)c1nn(-c2ccccc2C(=O)N2Cc3ccccc3C[C@H]2CO)c(C)c1Cl | 100 | 780 | – |
| CNC[C@@H]1Cc2ccccc2CN1C(=O)c1ccccc1-n1nc(C(=O)N(c2ccccc2)c2ccccc2)cc1C | 140 | – | – |
| Cc1cc(C(=O)N(c2ccccc2)c2ccccc2)nn1-c1ccccc1C(=O)N1Cc2ccccc2C[C@H]1CNS(C)(=O)=O | 1050 | – | inhibition [7]: 40% |
| CCN(CC)C(=O)c1nn(-c2ccccc2C(=O)N2Cc3ccccc3C[C@H]2CO)c(C)c1Br | 3670 | 17300 | inhibition [3]: 14% |
| Cc1c(Cl)c(C(=O)N(CC(F)(F)F)CC(F)(F)F)nn1-c1ccccc1C(=O)N1Cc2ccccc2C[C@H]1CO | – | – | inhibition [8]: 6%; inhibition [6]: 13%; inhibition [4]: 4% |
| Cc1cc(C(=O)Nc2ccccc2)nn1-c1ccccc1C(=O)N1CCc2ccccc2C1 | 50000 | – | – |
| Cc1cc(C(=O)N(c2ccccc2)c2ccccc2)nn1-c1ccccc1C(=O)N1Cc2ccccc2C[C@H]1CN(C)C | 150 | – | – |
| COC(=O)C[C@@H]1Cc2ccccc2CN1C(=O)c1ccccc1-n1nc(C(=O)N(c2ccccc2)c2ccccc2)cc1C | 280 | – | – |
